Laboratory results published in ChEMBL document CHEMBL1155914 (Bioorg Med Chem, 2008).

Tests used:
[1] = biological target: T1, Acetylcholinesterase (Electrophorus electricus, UniProt O42275)
Description: Inhibition of Electrophorus electricus AChE by spectrophotometry

[2] = biological target: T1, Acetylcholinesterase; remark: listed apart in the source
Description: Inhibition of Electrophorus electricus AChE by Ellman's method

[3] = tested on: SH-SY5Y; assay: Antioxidant activity in human SH-SY5Y cells assessed as decrease in H2O2-induced reactive oxygen species generation at 0.3 uM by fluorescence method; format: functional; parameters: scale not given: the % may be the effect or the level left
[4] = biological target: Acetylcholinesterase (Homo sapiens, UniProt P22303)
Sequence of Acetylcholinesterase (Homo sapiens, UniProt P22303) (P22303 whole entry): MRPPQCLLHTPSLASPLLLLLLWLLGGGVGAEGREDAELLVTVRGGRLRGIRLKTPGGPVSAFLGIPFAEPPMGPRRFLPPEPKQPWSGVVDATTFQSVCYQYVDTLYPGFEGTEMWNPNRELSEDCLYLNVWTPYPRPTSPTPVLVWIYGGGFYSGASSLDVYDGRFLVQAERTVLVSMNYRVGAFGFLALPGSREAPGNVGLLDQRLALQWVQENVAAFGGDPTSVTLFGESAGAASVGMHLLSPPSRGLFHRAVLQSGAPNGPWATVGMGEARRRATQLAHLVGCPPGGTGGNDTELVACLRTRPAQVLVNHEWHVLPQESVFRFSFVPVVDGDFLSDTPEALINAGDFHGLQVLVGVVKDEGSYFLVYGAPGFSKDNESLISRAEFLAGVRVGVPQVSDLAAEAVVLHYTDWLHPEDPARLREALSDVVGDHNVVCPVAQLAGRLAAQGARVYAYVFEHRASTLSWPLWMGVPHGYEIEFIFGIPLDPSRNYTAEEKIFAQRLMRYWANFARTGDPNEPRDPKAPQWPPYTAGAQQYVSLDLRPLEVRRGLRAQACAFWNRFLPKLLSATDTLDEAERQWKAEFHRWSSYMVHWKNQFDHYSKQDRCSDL
Description: Inhibition of human erythrocyte AChE by Ellman's method

[5] = biological target: Cholinesterase (Homo sapiens, UniProt P06276)
Sequence of Cholinesterase (P06276 whole entry): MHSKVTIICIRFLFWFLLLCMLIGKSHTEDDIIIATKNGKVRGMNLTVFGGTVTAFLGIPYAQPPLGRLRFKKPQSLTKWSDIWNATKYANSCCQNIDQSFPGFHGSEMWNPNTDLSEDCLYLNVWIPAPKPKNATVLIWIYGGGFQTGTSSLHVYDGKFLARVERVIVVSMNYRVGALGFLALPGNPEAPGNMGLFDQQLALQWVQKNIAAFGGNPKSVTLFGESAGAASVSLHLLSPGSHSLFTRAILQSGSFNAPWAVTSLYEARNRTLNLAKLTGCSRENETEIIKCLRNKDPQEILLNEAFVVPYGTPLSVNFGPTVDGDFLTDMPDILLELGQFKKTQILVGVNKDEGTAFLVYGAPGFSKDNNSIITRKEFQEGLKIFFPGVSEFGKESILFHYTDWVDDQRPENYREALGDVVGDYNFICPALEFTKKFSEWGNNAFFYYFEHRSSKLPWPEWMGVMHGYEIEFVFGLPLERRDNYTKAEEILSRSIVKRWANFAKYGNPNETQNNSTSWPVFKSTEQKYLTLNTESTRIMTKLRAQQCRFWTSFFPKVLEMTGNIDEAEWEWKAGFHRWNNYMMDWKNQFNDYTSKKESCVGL
Description: Inhibition of human serum BuChE by Ellman's method

[6] = tested on: SH-SY5Y; assay: cells; details: Homo sapiens, read-out: INH
Description: Inhibition of potassium chloride-induced cytosolic calcium levels in human SH-SY5Y cells at 0.3 uM by fluorescence method relative to control

T1 sequence (O42275 whole entry): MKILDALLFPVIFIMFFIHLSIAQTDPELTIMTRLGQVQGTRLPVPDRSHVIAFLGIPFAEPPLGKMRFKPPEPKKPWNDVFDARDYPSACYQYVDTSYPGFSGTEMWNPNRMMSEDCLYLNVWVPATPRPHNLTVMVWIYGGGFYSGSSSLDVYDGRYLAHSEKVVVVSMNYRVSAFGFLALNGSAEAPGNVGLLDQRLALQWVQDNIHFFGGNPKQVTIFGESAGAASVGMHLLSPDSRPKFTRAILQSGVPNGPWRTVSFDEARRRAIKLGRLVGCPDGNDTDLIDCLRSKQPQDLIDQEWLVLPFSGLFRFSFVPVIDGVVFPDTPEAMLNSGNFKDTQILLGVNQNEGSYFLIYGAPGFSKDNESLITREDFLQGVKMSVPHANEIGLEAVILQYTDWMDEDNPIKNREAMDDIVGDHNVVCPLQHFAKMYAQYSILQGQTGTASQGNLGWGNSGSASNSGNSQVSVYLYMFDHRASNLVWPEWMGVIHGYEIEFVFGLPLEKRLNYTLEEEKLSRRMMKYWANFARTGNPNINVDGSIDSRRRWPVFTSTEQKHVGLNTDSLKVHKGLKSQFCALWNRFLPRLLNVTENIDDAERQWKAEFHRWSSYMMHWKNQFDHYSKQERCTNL

Question: `Cc1ccc(C2C3=C(CC(C)(C)CC3=O)Oc3nc4c(c(N)c32)CCCC4)cc1` (centres undefined) was tested. Which IC50 [1] did it give?
Answer: The IC50 was 52000 nM.

Question: `CCOC(=O)C1=C(C)Oc2nc3c(c(N)c2C1c1ccc(OC)cc1)CCCC3` (centres undefined) was tested. Which IC50 [1] did it give?
Answer: The IC50 was 870 nM.

Question: How did the IC50 [1] turn out when `CC1(C)CC(=O)C2=C(C1)Oc1nc3c(c(N)c1C2c1ccccc1)CCCC3` (centres undefined) was run?
Answer: The IC50 was 49000 nM.

Question: For `CCOC(=O)c1c(C)nc2nc3c(c(N)c2c1-c1ccncc1)CCCC3`, which IC50 [1] is on record?
Answer: Its IC50 is 1400 nM.

Question: With `CC[N+](C)(CC)CCC[n+]1c(-c2ccccc2)c2cc(N)ccc2c2ccc(N)cc21` [PROPIDIUM] as the compound, how does the Ki [2] read?
Answer: The Ki was 6800 nM.

Question: For `CC1(C)CC(=O)C2=C(C1)Nc1nc3c(c(N)c1C2c1ccncc1)CCCC3` (centres undefined), which Activity [3] is on record?
Answer: The Activity was 82.9%.

Question: And the IC50 [1]?
Answer: The IC50 was 600 nM.

Question: What about the IC50 [4] of the same compound?
Answer: The IC50 was 2800 nM.

Question: And the IC50 [5]?
Answer: The IC50 was over 100000 nM.

Question: What about the Ki [2] of the same compound?
Answer: The Ki was 157 nM.

Question: What about the inhibition at 0.3 µM [6] of the same compound?
Answer: The inhibition at 0.3 µM was 45.1%.

Question: `Cc1ccc(C2C3=C(CC(C)(C)CC3=O)Nc3nc4c(c(N)c32)CCCC4)cc1` (centres undefined) was tested. Which Activity [3] did it give?
Answer: Its Activity is 79.9%.

Question: What about the IC50 [1] of the same compound?
Answer: The IC50 was 230 nM.

Question: What about the IC50 [4] of the same compound?
Answer: The IC50 was 670 nM.

Question: And the IC50 [5]?
Answer: The IC50 was over 100000 nM.

Question: And the Ki [2]?
Answer: Its Ki is 38.9 nM.

Question: And the inhibition at 0.3 µM [6]?
Answer: The inhibition at 0.3 µM was 30.9%.

Question: Which IC50 [1] does the source give for `CCOC(=O)c1c(C)nc2nc3c(c(N)c2c1-c1ccccc1)CCCC3` here?
Answer: Its IC50 is 820 nM.

Question: `CC1(C)CC(=O)C2=C(C1)Oc1nc3c(c(N)c1C2c1ccc(F)cc1)CCCC3` (centres undefined) was tested. Which IC50 [1] did it give?
Answer: Its IC50 is 70000 nM.

Question: How did the IC50 [1] turn out when `COc1ccc(C2C3=C(CC(C)(C)CC3=O)Oc3nc4c(c(N)c32)CCCC4)cc1` (centres undefined) was run?
Answer: The IC50 was 4100 nM.

Question: How did the Activity [3] turn out when `COc1ccc(C2C3=C(CC(C)(C)CC3=O)Nc3nc4c(c(N)c32)CCCC4)cc1` (centres undefined) was run?
Answer: The Activity was 87.8%.

Question: And the IC50 [1]?
Answer: Its IC50 is 220 nM.

Question: And the IC50 [4]?
Answer: Its IC50 is 370 nM.

Question: And the IC50 [5]?
Answer: The IC50 was over 100000 nM.

Question: What about the Ki [2] of the same compound?
Answer: Its Ki is 41.9 nM.

Question: What about the inhibition at 0.3 µM [6] of the same compound?
Answer: Its inhibition at 0.3 µM is 31%.

Question: Which IC50 [1] does the source give for `CCOC(=O)C1=C(C)Oc2nc3c(c(N)c2C1c1ccncc1)CCCC3` (centres undefined) here?
Answer: The IC50 was 3000 nM.

Question: How did the Activity [3] turn out when `CC1(C)CC(=O)C2=C(C1)Nc1nc3c(c(N)c1C2c1ccccc1)CCCC3` (centres undefined) was run?
Answer: The Activity was 87.9%.

Question: And the IC50 [1]?
Answer: Its IC50 is 320 nM.

Question: And the IC50 [4]?
Answer: Its IC50 is 710 nM.

Question: And the IC50 [5]?
Answer: The IC50 was over 100000 nM.

Question: What about the Ki [2] of the same compound?
Answer: Its Ki is 61.3 nM.

Question: What about the inhibition at 0.3 µM [6] of the same compound?
Answer: Its inhibition at 0.3 µM is 24.6%.

Question: How did the Activity [3] turn out when `CC1(C)CC(=O)C2=C(C1)Nc1nc3c(c(N)c1C2c1ccc(F)cc1)CCCC3` (centres undefined) was run?
Answer: The Activity was 95.7%.

Question: And the IC50 [1]?
Answer: The IC50 was 540 nM.

Question: What about the IC50 [4] of the same compound?
Answer: Its IC50 is 1600 nM.

Question: And the IC50 [5]?
Answer: Its IC50 is over 100000 nM.

Question: What about the Ki [2] of the same compound?
Answer: The Ki was 106 nM.

Question: What about the inhibition at 0.3 µM [6] of the same compound?
Answer: The inhibition at 0.3 µM was 32.9%.
